Measurements: patent US20050153306A1, “Fluorogenic enzyme substrates and uses thereof” (IRM LLC, priority 2003, published 2005)

Columns and labels:
Thrombin = molecular target: T1, Thrombin (Homo sapiens, UniProt P00734); assay: Enzymatic activity monitored using rhodamine protease substrates (fluorescence); assay type: biochemical; settings: substrate 250 μM, thrombin 500 pM, 37° C.
T1 construct: purchased Haematologic Technologies (Essex Jct., Vt.)
Method: (§1) The substrates 1 and 3 were used at 250 μM. Thrombin was used at a concentration of 500 pM and caspase-3 was used at a concentration of 10 nM. For thrombin a buffer consisting of 50 mM Tris (pH 7.4),200 mM NaCl, 5 mM CaCI2 and 0.01% (v/v) Tween-20 (THB) was used. The buffer for caspase-3 (CAB) consisted of 20 mM HEPES (pH 7.4), 100 mM NaCi, inM EDTA, 0.1% CHAPS,10% (w/v) sucrose and 10 mM DTT. 50 µl of the buffer containing the substrate at a concentration of 500 JIM were transferred into a well of a black 96-well Microfluor plate (Dynex Technologies, Chantilly, Va.). The reaction was initiated by the addition of 50 μL of the buffer containing the enzyme at a concentration of 1 nM for thrombin or 20 nM for caspase-3. The hydrolysis of rhodamine substrates was measured with a Spectramax Gemini XS spectrofluorimeter (Molecular devices, Sunnyvale, Calif.) thermostated at 37° C. using an excitation wavelength of 490 nm, an emission wavelength of 530 nm and a cutoff wavelength of 515 nm.

caspase-3 = molecular target: T2, caspase-3 (Homo sapiens, UniProt P42574); assay: as above; assay type: biochemical; design: made in house; settings: substrate 250 μM, caspase-3 10 nM, 37° C.
T2 sequence (P42574 29-175 limits assumed): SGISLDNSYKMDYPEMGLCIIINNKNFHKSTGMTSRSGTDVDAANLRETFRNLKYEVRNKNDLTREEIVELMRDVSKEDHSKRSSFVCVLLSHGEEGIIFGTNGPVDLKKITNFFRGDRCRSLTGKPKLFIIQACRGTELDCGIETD
T2 sequence (P42574 176-277 limits assumed): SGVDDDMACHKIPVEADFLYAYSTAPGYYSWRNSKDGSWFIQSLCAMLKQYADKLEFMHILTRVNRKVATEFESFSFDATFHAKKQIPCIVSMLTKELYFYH
Method: as §1

Row | Substance | fluorescence signal (enzymatic hydrolysis of the rhodamine substrate) (Thrombin) | fluorescence signal (enzymatic hydrolysis of the rhodamine substrate) (caspase-3) | fluorescence signal (enzymatic hydrolysis of the rhodamine substrate) (caspase-3; listed as (DEVD)2-rhodamine-Ac) | fluorescence signal (enzymatic hydrolysis of the rhodamine substrate) (Thrombin; listed as (nTPR)2-rhodamine-Ac)
1 | (Ac-DEVD)2-rhodamine-Lys(Ac) [compound 1] | only a slight increase in fluorescence | strong fluorescent signal | linear increase in fluorescence | –
2 | (Ac-nTPR)2-rhodamine-Lys(Ac) [compound 3] | strong fluorescent signal | only a slight increase in fluorescence | – | linear increase in fluorescence
